Experimental data from patent EP0197829A1, “5H-pyrido[3',4':4,5]pyrrolo[3,2-c]pyridine derivatives, process for their preparation and their antitunour activity” (SANOFI, priority 1985, dated 1986).

Assays:
leucémie L 1210 = assay: L 1210 leukemia test in vivo; design: species or system souris hybrides CDF1; conditions: for Survivants: at day J 60
Text: (§1) L'activité antitumorale a été testée in vivo sur différentes tumeurs selon le protocole général suivant : Toutes les souris mâles ou femelles sont inoculées par voie intrapéritonéale au jour Jo avec une quantité déterminée de cellules tumorales viables, variable selon la tumeur.
(§2) Elles sont ensuite réparties en différents lots. Chaque lot correspondant aux animaux traités par le produit à tester à une dose déterminée est composé de lO souris. Dans ce cas, le produit à tester est dissous dans l'eau distillée et il est administré, pendant n jours (J1-Jn) variables selon le protocole choisi, par voie intrapéritonéale à raison de 0,1 ml par lO g de poids des souris traitées, les doses du produit administré étant précisées dans les tableaux ci-dessous.
(§3) Le lot "Contrôle négatif", correspondant aux animaux qui ne sont pas traités par un produit, comprend 2 √N animaux, N étant égal au nombre total de souris traitées par un produit.
(§4) Enfin, tous lés essais sont conduits parallèlement à l'étude d'un lot appelé "Contrôle positif" de 10 animaux qui est traité par une molécule active, variable selon le protocole choisi, dans les mêmes conditions que les lots traités par le produit à tester, afin de valider l'essai.
(§5) L'activité antitumorale est évaluée en considérant l'augmentation du temps de survie des animaux traités par rapport à celui des animaux du lot "Contrôle négatif" selon la formule : • Jour médian de survie des animaux traités à une T/C = dose donnée de produit x 100 • Jour médian de survie des animaux "Contrôle négatif"
(§6) Un composé est considéré comme étant actif lorsque la valeur du rapport T/C est égale ou supérieure à 125 % selon le protocole retenu. Il est toxique lorsque cette valeur est égale ou inférieure à 85 %. Le produit est également considéré comme toxique lorsque la variation pondérale, exprimée en grammes et calculée par la formule : Poids moyen du lot mesuré au jour 5 - poids moyen du même lot au jour 1, est égale ou inférieure à -4g . a) Test de la leucémie P 388 (GERAN et al., Cancer Chemother, 1972, 2, 07-57).
b) Test de la leucémie L 1210 (GERAN et al., Cancer Chemother, 1972, 2, 07-57).
Les essais sont effectués avec des souris hybrides CDF1 inoculées avec 10^5 cellules leucémiques de la lignée L 1210. Le composé à tester est administré pendant 5 jours (J1-J5). Le contrôle positif du test est le 5-fluorouracile administré dans les mêmes conditions. Le nombre d'animaux survivants est évalué au jour J 60. Un composé est considéré comme étant actif lorsque le rapport T/C est supérieur ou égal à 125 %.

mélanome B 16 = assay: B 16 melanoma test in vivo; design: species or system souris hybrides BDF1; Jour médian de survie: unit not given here; conditions: for Survivants: at day J 60
Text: as §1, §2, §3, §4, §5, §6
c) Test du mélanome B 16 (GERAN et al., Cancer Chemother, 1972, 2, 07-57).
Les essais sont effectués avec des souris hybrides BDF1 inoculées avec O,5 ml d'un homogénat de mélanome B 16 réalisé à partir de 1 g de tumeur dans 10 ml de sérum physiologique. Le composé à tester est administré pendant 9 jours (J1-J9). Le contrôle positif du test est le Cis- platine administré dans les mêmes conditions. Le nombre d'animaux survivants est évalué au jour J 60. Un composé est considéré comme étant actif lorsque le rapport T/C est supérieur ou égal à 125 %.

réticulosarcome M5-M5076 = assay: M5-M5076 reticulosarcoma test in vivo; design: species or system souris hybrides BDF1; conditions: for Survivants: at day J 75
Text: as §1, §2, §3, §4, §5, §6
d) Test du réticulosarcome M5-M5076.
Les essais sont effectués avec des souris hybrides BDF1 inoculées avec 10^6 cellules de la lignée M5-M5076. Le composé à tester est administré 5 fois successivement de façon séquentielle (Jl, 5, 9, 13, 17). Le contrôle positif du test est le cyclophosphamide administré dans les mêmes conditions. Le nombre d'animaux survivants est évalué au jour J 75. Un composé est considéré comme actif lorsque le rapport T/C est supérieur ou égal à 125 %.

[1] = 100 mg/kg i.p. J1, 5, 9, 13, 17
[2] = 150 mg/kg i.p. J1, 5, 9, 13, 17

For `Cc1cnc(NCCCN(C)C)c2c1[nH]c1ccncc12` [Dérivé N° 3, [(diméthylamino-3 propyl-1)amino]-1 méthyl-4 5-H pyrido[3',4':4,5]pyrrolo[3,2-c]pyridine], the “Jour médian de survie” value (leucémie L 1210; 5 mg/kg i.p. J1-J5) was 14,0, the T/C % (leucémie L 1210; 5 mg/kg i.p. J1-J5) was 152% and the Survivants (leucémie L 1210; 5 mg/kg i.p. J1-J5) was 0. The “Jour médian de survie” value (leucémie L 1210; 10 mg/kg i.p. J1-J5) was 16,25, the T/C % (leucémie L 1210; 10 mg/kg i.p. J1-J5) was 177% and the Survivants (leucémie L 1210; 10 mg/kg i.p. J1-J5) was 0. The “Jour médian de survie” value (leucémie L 1210; 20 mg/kg i.p. J1-J5) was 15,6, the T/C % (leucémie L 1210; 20 mg/kg i.p. J1-J5) was 170% and the Survivants (leucémie L 1210; 20 mg/kg i.p. J1-J5) was 0. For the same compound, the “Jour médian de survie” value (leucémie L 1210; 40 mg/kg i.p. J1-J5) was 9,25, the T/C % (leucémie L 1210; 40 mg/kg i.p. J1-J5) was 100% and the Survivants (leucémie L 1210; 40 mg/kg i.p. J1-J5) was 0. For the same compound, the “Jour médian de survie” value (leucémie L 1210; 50 mg/kg i.p. J1-J5) was 8,2, the T/C % (leucémie L 1210; 50 mg/kg i.p. J1-J5) was 89% and the Survivants (leucémie L 1210; 50 mg/kg i.p. J1-J5) was 0. The “Jour médian de survie” value (leucémie L 1210; 1,25 mg/kg i.p. J1-J5) was 11,75, the T/C % (leucémie L 1210; 1,25 mg/kg i.p. J1-J5) was 128% and the Survivants (leucémie L 1210; 1,25 mg/kg i.p. J1-J5) was 0. The “Jour médian de survie” value (leucémie L 1210; 2,5 mg/kg i.p. J1-J5) was 12,90, the T/C % (leucémie L 1210; 2,5 mg/kg i.p. J1-J5) was 140% and the Survivants (leucémie L 1210; 2,5 mg/kg i.p. J1-J5) was 0. For the same compound, the “Jour médian de survie” value (mélanome B 16; 5 mg/kg i.p. J1-J9) was 29, the T/C % (mélanome B 16; 5 mg/kg i.p. J1-J9) was 125% and the Survivants (mélanome B 16; 5 mg/kg i.p. J1-J9) was 0. The “Jour médian de survie” value (mélanome B 16; 20 mg/kg i.p. J1-J9) was 29,3, the T/C % (mélanome B 16; 20 mg/kg i.p. J1-J9) was 126% and the Survivants (mélanome B 16; 20 mg/kg i.p. J1-J9) was 0. For the same compound, the “Jour médian de survie” value (mélanome B 16; 40 mg/kg i.p. J1-J9) was 9,8, the T/C % (mélanome B 16; 40 mg/kg i.p. J1-J9) was 42% and the Survivants (mélanome B 16; 40 mg/kg i.p. J1-J9) was 0. For the same compound, the “Jour médian de survie” value (réticulosarcome M5-M5076; 25 mg/kg i.p. J1, 5, 9, 13, 17) was 51,0, the T/C % (réticulosarcome M5-M5076; 25 mg/kg i.p. J1, 5, 9, 13, 17) was 195% and the Survivants (réticulosarcome M5-M5076; 25 mg/kg i.p. J1, 5, 9, 13, 17) was 1. The “Jour médian de survie” value (réticulosarcome M5-M5076; 50 mg/kg i.p. J1, 5, 9, 13, 17) was 45,0, the T/C % (réticulosarcome M5-M5076; 50 mg/kg i.p. J1, 5, 9, 13, 17) was 172% and the Survivants (réticulosarcome M5-M5076; 50 mg/kg i.p. J1, 5, 9, 13, 17) was 0. For the same compound, the “Jour médian de survie” value (réticulosarcome M5-M5076; 75 mg/kg i.p. J1, 5, 9, 13, 17) was 41,7, the T/C % (réticulosarcome M5-M5076; 75 mg/kg i.p. J1, 5, 9, 13, 17) was 159% and the Survivants (réticulosarcome M5-M5076; 75 mg/kg i.p. J1, 5, 9, 13, 17) was 0. For the same compound, the “Jour médian de survie” value (réticulosarcome M5-M5076; [1]) was 44,7, the T/C % (réticulosarcome M5-M5076; [1]) was 171% and the Survivants (réticulosarcome M5-M5076; [1]) was 0. For the same compound, the “Jour médian de survie” value (réticulosarcome M5-M5076; [2]) was 10,0, the T/C % (réticulosarcome M5-M5076; [2]) was 38% and the Survivants (réticulosarcome M5-M5076; [2]) was 0.

For `CCN(CC)CCCNc1ncc(C)c2c1c1cnccc1n2C` [Dérivé N° 4, [(diéthylamino-3 propyl-1)amino]-1 diméthyl-4,5 5-H pyrido[3',4':4,5]pyrrolo[3,2-c]pyridine], the “Jour médian de survie” value (leucémie L 1210; 5 mg/kg i.p. J1-J5) was 12,75, the T/C % (leucémie L 1210; 5 mg/kg i.p. J1-J5) was 138% and the Survivants (leucémie L 1210; 5 mg/kg i.p. J1-J5) was 0. For the same compound, the “Jour médian de survie” value (leucémie L 1210; 15 mg/kg i.p. J1-J5) was 13,75, the T/C % (leucémie L 1210; 15 mg/kg i.p. J1-J5) was 149% and the Survivants (leucémie L 1210; 15 mg/kg i.p. J1-J5) was 0. The “Jour médian de survie” value (leucémie L 1210; 30 mg/kg i.p. J1-J5) was 17,25, the T/C % (leucémie L 1210; 30 mg/kg i.p. J1-J5) was 188% and the Survivants (leucémie L 1210; 30 mg/kg i.p. J1-J5) was 0. For the same compound, the “Jour médian de survie” value (leucémie L 1210; 60 mg/kg i.p. J1-J5) was 18,0, the T/C % (leucémie L 1210; 60 mg/kg i.p. J1-J5) was 196% and the Survivants (leucémie L 1210; 60 mg/kg i.p. J1-J5) was 1. The “Jour médian de survie” value (leucémie L 1210; 80 mg/kg i.p. J1-J5) was 9,1, the T/C % (leucémie L 1210; 80 mg/kg i.p. J1-J5) was 99% and the Survivants (leucémie L 1210; 80 mg/kg i.p. J1-J5) was 0. The “Jour médian de survie” value (leucémie L 1210; 2,5 mg/kg i.p. J1-J5) was 10,9, the T/C % (leucémie L 1210; 2,5 mg/kg i.p. J1-J5) was 118% and the Survivants (leucémie L 1210; 2,5 mg/kg i.p. J1-J5) was 0. For the same compound, the “Jour médian de survie” value (mélanome B 16; 20 mg/kg i.p. J1-J9) was 28, the T/C % (mélanome B 16; 20 mg/kg i.p. J1-J9) was 99% and the Survivants (mélanome B 16; 20 mg/kg i.p. J1-J9) was 0. For the same compound, the “Jour médian de survie” value (mélanome B 16; 30 mg/kg i.p. J1-J9) was 43,0, the T/C % (mélanome B 16; 30 mg/kg i.p. J1-J9) was 152% and the Survivants (mélanome B 16; 30 mg/kg i.p. J1-J9) was 4. The “Jour médian de survie” value (mélanome B 16; 40 mg/kg i.p. J1-J9) was 53,0, the T/C % (mélanome B 16; 40 mg/kg i.p. J1-J9) was 188% and the Survivants (mélanome B 16; 40 mg/kg i.p. J1-J9) was 5. The “Jour médian de survie” value (mélanome B 16; 50 mg/kg i.p. J1-J9) was 39,0, the T/C % (mélanome B 16; 50 mg/kg i.p. J1-J9) was 138% and the Survivants (mélanome B 16; 50 mg/kg i.p. J1-J9) was 0. For the same compound, the “Jour médian de survie” value (mélanome B 16; 60 mg/kg i.p. J1-J9) was 24,0, the T/C % (mélanome B 16; 60 mg/kg i.p. J1-J9) was 85% and the Survivants (mélanome B 16; 60 mg/kg i.p. J1-J9) was 0. For the same compound, the “Jour médian de survie” value (réticulosarcome M5-M5076; 10 mg/kg i.p. J1, 5, 9, 13, 17) was 28,3, the T/C % (réticulosarcome M5-M5076; 10 mg/kg i.p. J1, 5, 9, 13, 17) was 108% and the Survivants (réticulosarcome M5-M5076; 10 mg/kg i.p. J1, 5, 9, 13, 17) was 0. For the same compound, the “Jour médian de survie” value (réticulosarcome M5-M5076; 25 mg/kg i.p. J1, 5, 9, 13, 17) was 41,75, the T/C % (réticulosarcome M5-M5076; 25 mg/kg i.p. J1, 5, 9, 13, 17) was 159% and the Survivants (réticulosarcome M5-M5076; 25 mg/kg i.p. J1, 5, 9, 13, 17) was 1. The “Jour médian de survie” value (réticulosarcome M5-M5076; 50 mg/kg i.p. J1, 5, 9, 13, 17) was 53,0, the T/C % (réticulosarcome M5-M5076; 50 mg/kg i.p. J1, 5, 9, 13, 17) was 202% and the Survivants (réticulosarcome M5-M5076; 50 mg/kg i.p. J1, 5, 9, 13, 17) was 4. The “Jour médian de survie” value (réticulosarcome M5-M5076; [1]) was 48,0, the T/C % (réticulosarcome M5-M5076; [1]) was 182% and the Survivants (réticulosarcome M5-M5076; [1]) was 2. For the same compound, the “Jour médian de survie” value (réticulosarcome M5-M5076; [2]) was 14,0, the T/C % (réticulosarcome M5-M5076; [2]) was 53% and the Survivants (réticulosarcome M5-M5076; [2]) was 0.
